Measured values from US6432982B1, “Benzothiophenes, and formulations and methods using same” (Eli Lilly and Company, priority 1996, dated 2002).
Marks after values point to notes of the source that are not given here. One block for each compound: values may come before it.

Key:
[1] = tested on: ovariectomized (OVX) rats; assay: Serum cholesterol analysis in ovariectomized rats; format: in vivo, Sprague Dawley rats; conditions: for Serum Cholest. % Dec. (Serum cholesterol decrease versus ovariectomized controls): oral, daily for 4 days
Procedure: (§1) In the examples illustrating the methods, a post-menopausal model is used in which effects of different treatments upon circulating lipids are determined.
(§2) Seventy-five day old female Sprague Dawley rats (weight range of 200 to 225 g) are obtained from Charles River Laboratories (Portage, Mich.). The animals are either bilaterally ovariectomized (OVX) or exposed to a Sham surgical procedure at Charles River Laboratories, and then shipped after one week. Upon arrival, they are housed in metal hanging cages in groups of 3 or 4 per cage and had ad libitum access to food (calcium content approximately 0.5%) and water for one week. Room temperature is maintained at 22.2°±1.7° C. with a minimum relative humidity of 40%. The photoperiod in the room is 12 hours light and 12 hours dark.
(§3) After a one week acclimation period (therefore, two weeks post-OVX) daily dosing with test compound is initiated. 17α-ethynyl estradiol or the test compound are given orally, unless otherwise stated, as a suspension in 1% carboxymethylcellulose or dissolved in 20% cyclodextrin. Animals are dosed daily for 4 days. Following the dosing regimen, animals are weighed and anesthetized with a ketamine: Xylazine (2:1, V:V) mixture and a blood sample is collected by cardiac puncture. The animals are then sacrificed by asphyxiation with CO2, the uterus is removed through a midline incision, and a wet uterine weight is determined.
Blood samples are allowed to clot at room temperature for 2 hours, and serum is obtained following centrifugation for 10 minutes at 3000 rpm. Serum cholesterol is determined using a Boehringer Mannheim Diagnostics high performance cholesterol assay. Briefly the cholesterol is oxidized to cholest-4-en-3-one and hydrogen peroxide. The hydrogen peroxide is then reacted with phenol and 4-aminophenazone in the presence of peroxidase to produce a p-quinone imine dye, which is read spectrophotemetrically at 500 nm. Cholesterol concentration is then calculated against a standard curve. The entire assay is automated using a Biomek Automated Workstation.

[2] = tested on: uterus of ovariectomized (OVX) rats; assay: Uterine weight in ovariectomized rat post-menopausal model; format: in vivo, Sprague Dawley rats; conditions: for Uterine Weight % inch (Uterine Weight % increase versus the ovarierectomized controls): oral, daily for 4 days
Procedure: as §1, §2, §3

[3] = tested on: uterine eosinophil peroxidase; assay: Uterine Eosinophil Peroxidase (EPO) Assay; format: in vivo, Sprague Dawley rats; conditions: for Uterine Eosinophil (Vmax) (Eosinphil peroxidase Vmaxium): OVX rats, oral, daily for 4 days
Text: as §2, §3
Uteri are kept at 4° C. until time of enzymatic analysis. The uteri are then homogenized in 50 volumes of 50 mM Tris buffer (pH−8.0) containing 0.005% Triton X-100. Upon addition of 0.01% hydrogen peroxide and 10 mM O-phenylenediamine (final concentrations) in Tris buffer, increase in absorbance is monitored for one minute at 450 nm. The presence of eosonophils in the uterus is an indication of estrogenic activity of a compound. The maximal velocity of a 15 second interval is determined over the initial, linear portion of the reaction curve.

[4] = tested on: MCF-7 breast adenocarcinoma cells; assay: MCF-7 Proliferation Assay; format: cell-based; conditions: Homo sapiens, MCF7; tritiated thymidine incorporation, 48 hours with drug, versus the control (DMSO); read-out: IC50, inhibition of proliferation of MCF-7 cells
Procedure: MCF-7 breast adenocarcinoma cells (ATCC HTB 22) are maintained in MEM (minimal essential medium, phenol red-free, Sigma, St. Louis, Mo.) supplemented with 10% fetal bovine serum (FBS) (V/V), L-glutamine (2 mM), sodium pyruvate (1 mM), HEPES {(N-[2-hydroxyethyl]piperazine-N′-[2-ethanesulfonic acid]10 mM}, non-essential amino acids and bovine insulin (1 ug/mL) (maintenance medium). Ten days prior to assay, MCF-7 cells are switched to maintenance medium supplemented with 10% dextran coated charcoal stripped fetal bovine serum (DCC-FBS) assay medium) in place of 10% FBS to deplete internal stores of steroids. MCF-7 cells are removed from maintenance flasks using cell dissociation medium (Ca++/Mg++ free HBSS (phenol red-free) supplemented with 10 mM HEPES and 2 mM EDTA). Cells are washed twice with assay medium and adjusted to 80,000 cells/mL. Approximately 100 μL (8,000 cells) are added to flat-bottom microculture wells (Costar 3596) and incubated at 37° C. in a 5% CO2 humidified incubator for 48 hours to allow for cell adherence and equilibration after transfer. Serial dilutions of drugs or DMSO as a diluent control are prepared in assay medium and 50 μL transferred to triplicate microcultures followed by 50 μL assay medium for a final volume of 200 μL. […] Samples are counted by liquid scintillation using a Wallac BetaPlace β counter. […]

[5] = compared to the ovariectomized animals, EE2 orally at 0.1 mg/kg/day

Structure (SMILES): Cl.O=C(c1ccc(OCCN2CCCCC2)c(F)c1)c1c(-c2ccc(O)cc2)sc2cc(O)ccc12 [compound 1, [2-(4-Hydroxyphenyl)-6-hydroxybenzo[b]thien-3-yl][4-[2-(1-piperidinyl)ethoxy]3-fluorophenyl]methanone Hydrochloride]
Serum Cholest. % Dec. (Serum cholesterol decrease versus ovariectomized controls) ([1]; dose 0.1 mg/kg): 45.1* %
Serum Cholest. % Dec. (Serum cholesterol decrease versus ovariectomized controls) ([1]; dose 1.0 mg/kg): 59.5* %
Serum Cholest. % Dec. (Serum cholesterol decrease versus ovariectomized controls) ([1]; dose 10.0 mg/kg): 64.1* %
Uterine Weight % inch (Uterine Weight % increase versus the ovarierectomized controls) ([2]; dose 0.1 mg/kg): 18.4%
Uterine Weight % inch (Uterine Weight % increase versus the ovarierectomized controls) ([2]; dose 1.0 mg/kg): 14.9%
Uterine Weight % inch (Uterine Weight % increase versus the ovarierectomized controls) ([2]; dose 10.0 mg/kg): 12.5%
Uterine Eosinophil (Vmax) (Eosinphil peroxidase Vmaxium) ([3]; dose 0.1 mg/kg): 5.4
Uterine Eosinophil (Vmax) (Eosinphil peroxidase Vmaxium) ([3]; dose 1.0 mg/kg): 4.5
Uterine Eosinophil (Vmax) (Eosinphil peroxidase Vmaxium) ([3]; dose 10.0 mg/kg): 2.7

Structure (SMILES): Cc1cc(C(=O)c2c(-c3ccc(O)cc3)sc3cc(O)ccc23)cc(C)c1OCCN1CCCCC1.Cl [compound 5, [2-(4-Hydroxyphenyl)-6-hydroxybenzo[b]thien-3-yl][4-[2-(1-piperidinyl)ethoxy]3,5-dimethylphenyl]methanone Hydrochloride]
Serum Cholest. % Dec. (Serum cholesterol decrease versus ovariectomized controls) ([1]; dose 0.1 mg/kg): 33.8* %
Serum Cholest. % Dec. (Serum cholesterol decrease versus ovariectomized controls) ([1]; dose 1.0 mg/kg): 55.5* %
Serum Cholest. % Dec. (Serum cholesterol decrease versus ovariectomized controls) ([1]; dose 10.0 mg/kg): 74.9* %
Uterine Weight % inch (Uterine Weight % increase versus the ovarierectomized controls) ([2]; dose 0.1 mg/kg): −24.4%
Uterine Weight % inch (Uterine Weight % increase versus the ovarierectomized controls) ([2]; dose 1.0 mg/kg): −16.4%
Uterine Weight % inch (Uterine Weight % increase versus the ovarierectomized controls) ([2]; dose 10.0 mg/kg): 27.4%
IC50 [4]: 40 nM
Uterine Eosinophil (Vmax) (Eosinphil peroxidase Vmaxium) ([3]; dose 0.1 mg/kg): 4.0
Uterine Eosinophil (Vmax) (Eosinphil peroxidase Vmaxium) ([3]; dose 1.0 mg/kg): 7.2
Uterine Eosinophil (Vmax) (Eosinphil peroxidase Vmaxium) ([3]; dose 10.0 mg/kg): 25.9*

Structure (SMILES): C#C[C@]1(O)CC[C@H]2[C@@H]3CCc4cc(O)ccc4[C@H]3CC[C@@]21C [EE2, 17α-ethynyl estradiol, reference compound]
effect on serum cholesterol (in words) [1, 5]: caused a decrease in serum cholesterol
Serum Cholest. % Dec. (Serum cholesterol decrease versus ovariectomized controls) ([1]; dose 0.1 mg/kg): 87.3* %
effect on uterine weight (in words) [2, 5]: substantially greater than the uterine weight of the ovariectomized animals
Uterine Weight % inch (Uterine Weight % increase versus the ovarierectomized controls) ([2]; dose 0.1 mg/kg): 207.5* %
Uterine Eosinophil (Vmax) (Eosinphil peroxidase Vmaxium) ([3]; dose 0.1 mg/kg): 205.8*
eosinophil infiltration into the uterus (in words) ([3]; stromal layer of ovariectomized rat uteri): substantial and expected increase in eosinophil infiltration

Continued, in another order:

Uterine Weight % inch (Uterine Weight % increase versus the ovarierectomized controls) ([2]; dose 10.0 mg/kg): 37.5* %
Uterine Eosinophil (Vmax) (Eosinphil peroxidase Vmaxium) ([3]; dose 10.0 mg/kg): 12.0
Structure (SMILES): Cl.O=C(c1ccc(OCCN2CCCCC2)cc1Cl)c1c(-c2ccc(O)cc2)sc2cc(O)ccc12 [compound 8, [2-(4-Hydroxyphenyl)-6-hydroxybenzo[b]thien-3-yl][4-[2-(1-piperidinyl)ethoxy]2-chlorophenyl]methanone Hydrochloride]
Serum Cholest. % Dec. (Serum cholesterol decrease versus ovariectomized controls) ([1]; dose 10.0 mg/kg): 42.0* %

Uterine Weight % inch (Uterine Weight % increase versus the ovarierectomized controls) ([2]; dose 1.0 mg/kg): −35.7%
Uterine Eosinophil (Vmax) (Eosinphil peroxidase Vmaxium) ([3]; dose 1.0 mg/kg): 2.8
Structure (SMILES): Cc1cc(C(=O)c2c(-c3ccc(O)cc3)sc3cc(O)ccc23)cc(C(C)(C)C)c1OCCN1CCCCC1.Cl [compound 6, [2-(4-Hydroxyphenyl)-6-hydroxybenzo[b]thien-3-yl][4-[2-(1-piperidinyl)ethoxy]-3-t-butyl-5-methylphenyl]methanone Hydrochloride]
Serum Cholest. % Dec. (Serum cholesterol decrease versus ovariectomized controls) ([1]; dose 1.0 mg/kg): 55.2* %

Uterine Weight % inch (Uterine Weight % increase versus the ovarierectomized controls) ([2]; dose 10.0 mg/kg): 46.1* %
Uterine Eosinophil (Vmax) (Eosinphil peroxidase Vmaxium) ([3]; dose 10.0 mg/kg): 30.9
Structure (SMILES): Cl.O=C(c1ccc(OCCN2CCCCC2)c(Cl)c1)c1c(-c2ccc(O)cc2)sc2cc(O)ccc12 [compound 7, [2-(4-Hydroxyphenyl)-6-hydroxybenzo[b]thien-3-yl][4-[2-(1-piperidinyl)ethoxy]3-chlorophenyl]methanone Hydrochloride]
Serum Cholest. % Dec. (Serum cholesterol decrease versus ovariectomized controls) ([1]; dose 10.0 mg/kg): 62.2* %

Uterine Weight % inch (Uterine Weight % increase versus the ovarierectomized controls) ([2]; dose 10.0 mg/kg): 16.8%
Uterine Eosinophil (Vmax) (Eosinphil peroxidase Vmaxium) ([3]; dose 10.0 mg/kg): 7.8
Structure (SMILES): Cl.N#Cc1cc(C(=O)c2c(-c3ccc(O)cc3)sc3cc(O)ccc23)ccc1OCCN1CCCCC1 [compound 9, [2-(4-Hydroxyphenyl)-6-hydroxybenzo[b]thien-3-yl][4-[2-(1-piperidinyl)ethoxy]3-cyanophenyl]methanone Hydrochloride]
Serum Cholest. % Dec. (Serum cholesterol decrease versus ovariectomized controls) ([1]; dose 10.0 mg/kg): 38.8* %
